Laboratory results as given in US20230286973A1, “PROTEIN SECRETION INHIBITORS” (KEZAR LIFE SCIENCES, priority 2020, published 2023).
pEC50, pIC50: −log10 of the molar value.

Legend:
[1] = Liver Microsome Stability Assay (mouse); settings: mouse liver microsomes, with NADPH, 1.0 uM compound
Description: (§1) Stability of a compound was assessed in the presence of liver microsomes from various sources—mouse, rat, monkey and human liver microsomes. 1.0 uM compound, 0.4% DMSO in 0.1 M Potassium Phosphate with 1.0 mg/mL liver microsomes, were incubated at 37° C. with or without 1 mM NADPH. The samples were quenched at 0, and 30 minutes.

[2] = system: HER3-ss+4aa/Gaussia Luciferase; assay: Dox-Induced Her3-ss-Gluc Assay; assay type: cell-based; settings: 24 hr Dox induction; 293FRT/TO cells; mean; read-out: 24 hr Dox Inducible Her3(ss + 4)Gluc 293FRT/TO: Mean IC50
Outline: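 Cells were seeded a day ahead, then given compound diluted in DMSO/media with doxycycline to induce expression of the HER3 signal sequence (+4 aa)–Gaussia luciferase fusion. Incubation was at 37° C., 5% CO2, in a stable Flp-In 293 T-REx line.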

[3] = system: multiple myeloma cell line NCI-H929; assay: H929 Cell Viability Assay; assay type: cell-based, human; settings: Homo sapiens, NCI-H929, 48 h, NCI-H929 cells, Celltiter-Glo
Outline: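 Luminescent ATP detection (CellTiter-Glo) after 48 hours of compound exposure measures viability. Cells were plated in RPMI 1640 containing 10% fetal bovine serum and kept at 37° C under 5% CO2.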

[4] = system: PD1-ss+10aa/Gaussia Luciferase; assay: Dox-Induced PD1-ss-Gluc Assay; assay type: cell-based; settings: 24 hr Dox induction; 293FRT/TO cells; mean; read-out: 24 hr Dox Inducible PD1ssGluc 293FRT/TO: Mean IC50
Outline: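 The cell line was made by transfecting Flp-In 293 T-REx cells with a PD1 signal sequence+10aa–Gaussia luciferase fusion under T-REx control and selecting with hygromycin and blasticidin. Cells were seeded, and next day compound plus doxycycline was added at 37 °C, 5% CO2.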

[5] = system: multiple myeloma cell line U266B1; assay: U266 Cell Viability Assay; assay type: cell-based, human; settings: Homo sapiens, U-266, 48 h, U266B1 cells, Celltiter-Glo
Outline: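 Steps: culture in RPMI 1640 plus 10% FBS and 2 mM glutamine; plate and add compound dilutions; incubate 48 hours at 37° C., 5% CO2; add CellTiter-Glo and quantify luciferase signal.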

[6] = Liver Microsome Stability Assay (monkey); settings: monkey liver microsomes, with NADPH, 1.0 uM compound
Description: as §1

[7] = Liver Microsome Stability Assay (rat); settings: rat liver microsomes, with NADPH, 1.0 uM compound
Description: as §1

[8] = system: IL-2-FL/Gaussia Luciferase; assay: Dox Induced IL2-FL-Gluc Assay; assay type: cell-based; settings: for pIC50: 24 hr Dox induction, 293FRT/TO cells, mean, read-out: 24 hr Dox Inducible IL2FLGluc 293FRT/TO: Mean IC50; for 24 hr Dox Inducible IL2FLGluc 293FRT/TO: IL2/PD1: ratio of IL2FLGluc IC50 to PD1ssGluc IC50, '<=>' given where both are I.A.
Outline: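 Cells are plated one day ahead, then receive compound dilutions in DMSO/media with doxycycline and incubate at 37° C, 5% CO2. They are Flp-In 293 T-REx cells expressing a full-length IL-2 (amino acids 1-153)–Gaussia luciferase fusion under T-REx control.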

[9] = Liver Microsome Stability Assay (human); settings: human liver microsomes, with NADPH, 1.0 uM compound
Description: as §1

[10] = system: TNFα-FL/Gaussia Luciferase; assay: Dox Induced TNFα-FL-Gluc Assay; assay type: cell-based; settings: for pIC50: 24 hr Dox induction, 293FRT/TO cells, mean, read-out: 24 hr Dox Inducible TNFaFLGluc 293FRT/TO: Mean IC50; for 24 hr Dox Inducible TNFaFLGluc 293FRT/TO: TNF/PD1: ratio of TNFaFLGluc IC50 to PD1ssGluc IC50, '<=>' given where both are I.A.
Outline: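 Stereoisomer mixtures were tested where stereochemistry is not drawn. Induction used doxycycline added together with compound dilutions in DMSO/media to Flp-In 293 T-REx cells carrying a T-REx-regulated TNFα (aa 1-233)-Gaussia luciferase construct, then incubated at 37 °C, 5% CO2.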

Structure (SMILES)	Liver Microsome Stability (Multiple Species): Mouse - % Remaining after 30 min w/NADPH [1] [%]	pIC50 [2]	pEC50 [3]	pIC50 [4]	pEC50 [5]	Liver Microsome Stability (Multiple Species): Monkey - % Remaining after 30 min w/NADPH [6] [%]	Liver Microsome Stability (Multiple Species): Rat - % Remaining after 30 min w/NADPH [7] [%]	pIC50 [8]	Liver Microsome Stability (Multiple Species): Human - % Remaining after 30 min w/NADPH [9] [%]	pIC50 [10]	24 hr Dox Inducible IL2FLGluc 293FRT/TO: IL2/PD1 [8]	24 hr Dox Inducible TNFaFLGluc 293FRT/TO: TNF/PD1 [10]
O=C(Nc1nc([C@H]2CCCN2c2ccccc2)cs1)c1cccn1Cc1cccc(Cl)c1 [Compound C122, (R)-1-(3-chlorobenzyl)-N-(4-(1-phenylpyrrolidin-2-yl)thiazol-2-yl)-1H-pyrrole-2-carboxamide]	50.6	6.00	< 4.60	5.97	< 4.60	52.2	52.6	5.87	75.8	< 4.60	1.3	>23.3
O=C(Nc1nc([C@H]2CCCN2c2ccccc2)cs1)c1cccn1CC1CCC(F)(F)C1 (stereo partly drawn) [Compound C123, 1-((3,3-difluorocyclopentyl)methyl)-N-(4-((R)-1-phenylpyrrolidin-2-yl)thiazol-2-yl)-1H-pyrrole-2-carboxamide]	23.6	6.21	< 4.60	6.42	< 4.60	3.11	6.16	6.11	58.5	5.07	2.1	22.7
O=C(Nc1nc(/C=C/c2ncc(F)cc2F)cs1)c1cccn1CC1CCOCC1 [Compound D2, (E)-N-(4-(2-(3,5-difluoropyridin-2-yl)vinyl)thiazol-2-yl)-1-((tetrahydro-2H-pyran-4-yl)methyl)-1H-pyrrole-2-carboxamide]	2.76	5.82	< 4.62	6.40	< 4.60	0.23	0.39	< 4.87	5.79	5.22	>34	15.3
Cc1ccc(/C=C/c2csc(NC(=O)c3cccn3CC3CCOCC3)n2)nc1F [Compound D3, (E)-N-(4-(2-(6-fluoro-5-methylpyridin-2-yl)vinyl)thiazol-2-yl)-1-((tetrahydro-2H-pyran-4-yl)methyl)-1H-pyrrole-2-carboxamide]	0.46	5.70	4.99	6.13	< 4.75	0.09	0.26	5.18	0.24	< 4.60	9.1	>34.1
O=C(Nc1nc(/C=C/c2ncoc2C2CCCCC2)cs1)c1cccn1CC1CCOCC1 [Compound D4, (E)-N-(4-(2-(5-cyclohexyloxazol-4-yl)vinyl)thiazol-2-yl)-1-((tetrahydro-2H-pyran-4-yl)methyl)-1H-pyrrole-2-carboxamide]	29.8	4.97	< 4.60	5.98	< 4.60	1.35	1.86	< 4.60	5.39	< 4.60	>24	>24.1
O=C(Nc1nc(/C=C/c2cn(C3CCCCC3)cn2)cs1)c1cccn1CC1CCOCC1 [Compound D5, (E)-N-(4-(2-(1-cyclohexyl-1H-imidazol-4-yl)vinyl)thiazol-2-yl)-1-((tetrahydro-2H-pyran-4-yl)methyl)-1H-pyrrole-2-carboxamide]	0.54	4.67	4.72	6.11	< 4.61	0.17	0.16	4.87	0.18	< 4.60	17	>32.2
CC(C)c1ccc(/C=C/c2csc(NC(=O)c3cccn3CC3CCOCC3)n2)nc1 [Compound D6, (E)-N-(4-(2-(5-isopropylpyridin-2-yl)vinyl)thiazol-2-yl)-1-((tetrahydro-2H-pyran-4-yl)methyl)-1H-pyrrole-2-carboxamide]	0.09	5.21	5.06	6.23	4.91	0.04	0.06	< 4.60	0.03	< 4.60	>42	>42.0

More lines, main results first:

Liver Microsome Stability (Multiple Species): Mouse - % Remaining after 30 min w/NADPH [1] [%]	pIC50 [2]	pEC50 [3]	pIC50 [4]	pEC50 [5]	Liver Microsome Stability (Multiple Species): Monkey - % Remaining after 30 min w/NADPH [6] [%]	Liver Microsome Stability (Multiple Species): Rat - % Remaining after 30 min w/NADPH [7] [%]	pIC50 [8]	Liver Microsome Stability (Multiple Species): Human - % Remaining after 30 min w/NADPH [9] [%]	pIC50 [10]	Structure (SMILES)	24 hr Dox Inducible IL2FLGluc 293FRT/TO: IL2/PD1 [8]	24 hr Dox Inducible TNFaFLGluc 293FRT/TO: TNF/PD1 [10]
0.56	< 4.60	< 4.60	5.55	< 4.60	0.07	2.55	< 4.60	0.04	< 4.60	CC(C)n1cnc(/C=C/c2csc(NC(=O)c3cccn3CC3CCOCC3)n2)c1 [Compound D7, (E)-N-(4-(2-(1-isopropyl-1H-imidazol-4-yl)vinyl)thiazol-2-yl)-1-((tetrahydro-2H-pyran-4-yl)methyl)-1H-pyrrole-2-carboxamide]	>8.8	>8.84
0.33	5.38	4.62	6.81	< 4.60	0.53	0.33	4.66	0.57	< 4.60	Cc1ccnc(/C=C/c2csc(NC(=O)c3cccn3Cc3ccncc3)n2)c1 [Compound E1, (E)-N-(4-(2-(4-methylpyridin-2-yl)vinyl)thiazol-2-yl)-1-(pyridin-4-ylmethyl)-1H-pyrrole-2-carboxamide]	140	>163
28.6	6.39	5.13	7.63	< 4.60	13.5	35.4	6.28	17.5	5.31	C/C(=C\c1ccc(OC(F)(F)F)cn1)c1csc(NC(=O)c2cccn2Cc2ccncc2)n1 [Compound E2, (E)-1-(pyridin-4-ylmethyl)-N-(4-(1-(5-(trifluoromethoxy)pyridin-2-yl)prop-1-en-2-yl)thiazol-2-yl)-1H-pyrrole-2-carboxamide]	23	208
